# Literature values in PubChem BioAssay AID1259409 (Chemical Carcinogenesis Research Information System (CCRIS), 2018).
# Tested on: rodent chemically induced tumor inhibition, incidence and multiplicity
# Assay: CCRIS tumor inhibitor studies
# Conditions: Route [Inhibitor]: ORAL, Promoter: NONE USED
# Text: The CCRIS database contains chemical records with carcinogenicity, mutagenicity, tumor promotion, and tumor inhibition test results. It was developed by the National Cancer Institute (NCI). Data are derived from studies cited in primary journals, current awareness tools, NCI reports, and other sources. Test results have been reviewed by experts in carcinogenesis and mutagenesis.
# CCRIS provides historical information from the years 1985 - 2011. It is no longer updated.
# This is an archive assay for CCRIS tumor inhibitor studies.
structure (smiles),measurement,setting,value
CC1=C(/C=C/C(C)=C/C=C/C(C)=C\C(=O)O)C(C)(C)CCC1,"tumour outcome (control, treated, inhibition, significance)","Carcinogen: N-METHYL-N-NITROSOUREA, 684-93-5, Dose [Inhibitor]: 128 MG/KG DIET DAILY FOR 55 WK STARTING 1 WK AFTER LAST CARCINOGEN EXPOSURE (STUDY DURATION: 65 WK), Species: HAMSTER, Strain/Sex: SYRIAN/MALE, Target Tissue: Type of Lesion: TRACHEA: TUMOR, Dose [Carcinogen]: 1% FOR 7 SECONDS 2/WK FOR 9 WK","30/37 (81%), 26/34 (76%), 6%, not significant"
same,"tumour outcome (control, treated, inhibition, significance)","Carcinogen: N-METHYL-N-NITROSOUREA, 684-93-5, Dose [Inhibitor]: 172 MG/KG DIET DAILY FOR 55 WK STARTING 1 WK AFTER LAST CARCINOGEN EXPOSURE (STUDY DURATION: 67.5 WK), Species: HAMSTER, Strain/Sex: SYRIAN/MALE, Target Tissue: Type of Lesion: TRACHEA: TUMORS, Dose [Carcinogen]: 1% FOR 7 SECONDS 2/WK FOR 11.5 WK","24/40 (60%), 24/40 (60%), 0%, not significant"
same,"tumour outcome (control, treated, inhibition, significance)","Carcinogen: N-METHYL-N-NITROSOUREA, 684-93-5, Dose [Inhibitor]: 240 MG/KG OF DIET DAILY STARTING 5 D AFTER FINAL CARCINOGEN TREATMENT AND CONTINUING THROUGH END OF STUDY (STUDY DURATIO, Species: RAT, Strain/Sex: F344/MALE, Target Tissue: Type of Lesion: COLON: INVASIVE TUBULOPAPILLARY ADENOCARCINOMA, Dose [Carcinogen]: 0.5 MG 2/WK FOR 8 WK","33%, 27%, 18%, not significant"
same,"tumour outcome (control, treated, inhibition, significance)","Carcinogen: N-METHYL-N-NITROSOUREA, 684-93-5, Dose [Inhibitor]: 240 MG/KG OF DIET DAILY STARTING 5 D AFTER FINAL CARCINOGEN TREATMENT AND CONTINUING THROUGH END OF STUDY (STUDY DURATIO, Species: RAT, Strain/Sex: F344/MALE, Target Tissue: Type of Lesion: COLON: INVASIVE TUBULOPAPILLARY ADENOCARCINOMA, Dose [Carcinogen]: 1 MG 2/WK FOR 8 WK","80%, 90%, -13%, not significant"
same,"tumour outcome (control, treated, inhibition, significance)","Carcinogen: N-METHYL-N-NITROSOUREA, 684-93-5, Dose [Inhibitor]: 240 MG/KG OF DIET DAILY STARTING 5 D AFTER FINAL CARCINOGEN TREATMENT AND CONTINUING THROUGH END OF STUDY (STUDY DURATIO, Species: RAT, Strain/Sex: F344/MALE, Target Tissue: Type of Lesion: COLON: INVASIVE TUBULOPAPILLARY ADENOCARCINOMA, Dose [Carcinogen]: 2 MG 2/WK FOR 8 WK","95%, 100%, -5%, not significant"
same,"tumour outcome (control, treated, inhibition, significance)","Carcinogen: N-NITROBIS(2-OXOPROPYL)AMINE, 60559-38-4, Dose [Inhibitor]: 0.4 MMOL/KG/D IN DIET STARTING 1 WK AFTER CARCINOGEN TREATMENT AND CONTINUING THROUGH THE END OF THE STUDY (STUDY DURATI, Species: HAMSTER, Strain/Sex: SYRIAN/FEMALE, Target Tissue: Type of Lesion: LIVER: BENIGN TUMOR, Dose [Carcinogen]: 40 MG/KG BW ONCE","4/20 (20%), 10/15 (67%), -235%, p<0.05"
same,"tumour outcome (control, treated, inhibition, significance)","Carcinogen: N-NITROBIS(2-OXOPROPYL)AMINE, 60559-38-4, Dose [Inhibitor]: 0.4 MMOL/KG/D IN DIET STARTING 1 WK AFTER CARCINOGEN TREATMENT AND CONTINUING THROUGH THE END OF THE STUDY (STUDY DURATI, Species: HAMSTER, Strain/Sex: SYRIAN/FEMALE, Target Tissue: Type of Lesion: PANCREAS: DUCTULAR ADENOMA, Dose [Carcinogen]: 40 MG/KG BW ONCE","12/20 (60%), 7/14 (50%), 17%, not significant"
same,"tumour outcome (control, treated, inhibition, significance)","Carcinogen: N-NITROBIS(2-OXOPROPYL)AMINE, 60559-38-4, Dose [Inhibitor]: 0.4 MMOL/KG/D IN DIET STARTING 1 WK AFTER CARCINOGEN TREATMENT AND CONTINUING THROUGH THE END OF THE STUDY (STUDY DURATI, Species: HAMSTER, Strain/Sex: SYRIAN/FEMALE, Target Tissue: Type of Lesion: PANCREAS: DUCTULAR CARCINOMA, Dose [Carcinogen]: 40 MG/KG BW ONCE","6/20 (30%), 9/14 (64%), -113%, not significant"
same,"tumour outcome (control, treated, inhibition, significance)","Carcinogen: N-NITROBIS(2-OXOPROPYL)AMINE, 60559-38-4, Dose [Inhibitor]: 0.4 MMOL/KG/D IN DIET STARTING 1 WK AFTER CARCINOGEN TREATMENT AND CONTINUING THROUGH THE END OF THE STUDY (STUDY DURATI, Species: HAMSTER, Strain/Sex: SYRIAN/MALE, Target Tissue: Type of Lesion: PANCREAS: DUCTULAR CARCINOMA, Dose [Carcinogen]: 40 MG/KG BW ONCE","5/24 (21%), 9/24 (38%), -81%, not significant"
same,"tumour outcome (control, treated, inhibition, significance)","Carcinogen: N-NITROBIS(2-OXOPROPYL)AMINE, 60559-38-4, Dose [Inhibitor]: 0.4 OR 0.8 MMOL/KG DIET DAILY STARTING 1 WK AFTER CARCINOGEN TREATMENT AND CONTINUING THROUGH THE END OF THE STUDY (STUD, Species: HAMSTER, Strain/Sex: SYRIAN/FEMALE, Target Tissue: Type of Lesion: LIVER: BENIGN TUMOR, Dose [Carcinogen]: 40 MG/KG BW ONCE","4/20 (20%), 10/15 (67%), -235%, p<0.05"
same,"tumour outcome (control, treated, inhibition, significance)","Carcinogen: N-NITROBIS(2-OXOPROPYL)AMINE, 60559-38-4, Dose [Inhibitor]: 0.4 OR 0.8 MMOL/KG DIET DAILY STARTING 1 WK AFTER CARCINOGEN TREATMENT AND CONTINUING THROUGH THE END OF THE STUDY (STUD, Species: HAMSTER, Strain/Sex: SYRIAN/FEMALE, Target Tissue: Type of Lesion: PANCREAS: DUCTULAR ADENOMA, Dose [Carcinogen]: 10 MG/KG BW ONCE","5/23 (22%), 9/23 (39%), -77%, not significant"
